# Active and inactive are the calls of the source. No rule for the calls is given here.
# Tested on: rodent lifetime carcinogenesis bioassay, tumor incidence TD50
# Assay: chronic cancer bioassays in animals – CPDB, compiled studies (AID 1745844)
structure (smiles),measurement,setting,value
O=[As](O)(O)O,TD50,"monkey, strain Cynomolgus [Macaca fascicularis], both sexes, in feed, site: any site (literature study), lesion: benign tumor, dosed 735 weeks, study length 735 weeks",0.169 mg/kg/day
same,TD50,"monkey, strain Cynomolgus [Macaca fascicularis], both sexes, in feed, site: kidney cortex, lesion: adenoma, dosed 735 weeks, study length 735 weeks",0.029 mg/kg/day
same,carcinogen call,"rat, strain Osborne-Mendel, both sexes, in feed, site: any site (literature study), lesion: malignant tumor, dosed 104 weeks, study length 104 weeks",negative (inactive)
same,carcinogen call,"rat, strain Osborne-Mendel, both sexes, in feed, site: any site (literature study), lesion: several types, types named in the paper, dosed 104 weeks, study length 104 weeks",negative (inactive)
Nc1nc(N)nc(N)n1,carcinogen call,"mouse, strain B6C3F1, females, in feed, site: any site (literature study), lesion: several types, types named in the paper, dosed 103 weeks, study length 105 weeks",negative (inactive)
same,TD50,"mouse, strain B6C3F1, males, in feed, site: any site (literature study), lesion: several types, types named in the paper, dosed 103 weeks, study length 105 weeks",3200 mg/kg/day (inactive)
same,TD50,"mouse, strain B6C3F1, males, in feed, site: liver, lesion: hepatocellular adenoma + hepatocellular carcinoma + neoplastic nodule, dosed 103 weeks, study length 105 weeks",4370 mg/kg/day
same,TD50,"rat, strain Fischer 344, females, in feed, site: any site (literature study), lesion: several types, types named in the paper, dosed 103 weeks, study length 105 weeks",3930 mg/kg/day
same,TD50,"rat, strain Fischer 344, females, in feed, site: liver, lesion: hepatocellular adenoma + hepatocellular carcinoma + neoplastic nodule, dosed 103 weeks, study length 105 weeks",4410 mg/kg/day
same,TD50,"rat, strain Fischer 344, females, in feed, site: thyroid gland, lesion: c-cell adenoma + c-cell carcinoma, dosed 103 weeks, study length 105 weeks",2470 mg/kg/day (inactive)
same,TD50,"rat, strain Fischer 344, females, in feed, site: thyroid gland, lesion: c-cell carcinoma, dosed 103 weeks, study length 105 weeks",4160 mg/kg/day
same,TD50,"rat, strain Fischer 344, males, in feed, site: any site (literature study), lesion: several types, types named in the paper, dosed 103 weeks, study length 105 weeks",149 mg/kg/day
same,TD50,"rat, strain Fischer 344, males, in feed, site: urinary bladder, lesion: transitional-cell carcinoma + transitional-cell papilloma, dosed 103 weeks, study length 105 weeks",679 mg/kg/day
same,TD50,"rat, strain Fischer 344, males, in feed, site: urinary bladder, lesion: transitional-cell carcinoma, dosed 103 weeks, study length 105 weeks",735 mg/kg/day
Clc1ccc(Sc2cc(Cl)c(Cl)cc2Cl)cc1,carcinogen call,"rat, strain Wistar, females, in feed, site: liver, lesion: one or several types, types not named, dosed 104 weeks, study length 104 weeks",negative (inactive)
same,carcinogen call,"rat, strain Wistar, females, in feed, site: liver, lesion: one or several types, types not named, dosed 116 weeks, study length 116 weeks",negative (inactive)
same,TD50,"rat, strain Wistar, males, in feed, site: liver, lesion: hepatoma, dosed 116 weeks, study length 116 weeks",4590 mg/kg/day (inactive)
same,carcinogen call,"rat, strain Wistar, males, in feed, site: liver, lesion: one or several types, types not named, dosed 104 weeks, study length 104 weeks",negative (inactive)
O=C(O)C=Cc1ccc(O)c(O)c1,TD50,"mouse, strain B6C3F1, females, in feed, site: any site (literature study), lesion: one or several types, types not named, dosed 96 weeks, study length 96 weeks",1900 mg/kg/day
same,TD50,"mouse, strain B6C3F1, females, in feed, site: forestomach, lesion: squamous-cell carcinoma, dosed 96 weeks, study length 96 weeks",43300 mg/kg/day
same,TD50,"mouse, strain B6C3F1, females, in feed, site: kidney, lesion: tubular-cell adenoma, dosed 96 weeks, study length 96 weeks",4700 mg/kg/day
same,TD50,"mouse, strain B6C3F1, males, in feed, site: any site (literature study), lesion: one or several types, types not named, dosed 96 weeks, study length 96 weeks",3210 mg/kg/day
same,TD50,"mouse, strain B6C3F1, males, in feed, site: forestomach, lesion: papilloma, dosed 96 weeks, study length 96 weeks",9790 mg/kg/day
same,TD50,"mouse, strain B6C3F1, males, in feed, site: forestomach, lesion: several types, types named in the paper, dosed 96 weeks, study length 96 weeks",5270 mg/kg/day
same,TD50,"mouse, strain B6C3F1, males, in feed, site: forestomach, lesion: squamous-cell carcinoma, dosed 96 weeks, study length 96 weeks",13300 mg/kg/day
same,TD50,"mouse, strain B6C3F1, males, in feed, site: lung, lesion: alveolar-cell adenoma, dosed 96 weeks, study length 96 weeks",6110 mg/kg/day
same,TD50,"mouse, strain B6C3F1, males, in feed, site: lung, lesion: alveolar-cell carcinoma, dosed 96 weeks, study length 96 weeks",41300 mg/kg/day
same,TD50,"mouse, strain B6C3F1, males, in feed, site: lung, lesion: several types, types named in the paper, dosed 96 weeks, study length 96 weeks",5120 mg/kg/day
same,TD50,"rat, strain F344/DuCrj, females, in feed, site: any site (literature study), lesion: one or several types, types not named, dosed 104 weeks, study length 104 weeks",312 mg/kg/day
same,TD50,"rat, strain F344/DuCrj, females, in feed, site: forestomach, lesion: papilloma, dosed 104 weeks, study length 104 weeks",426 mg/kg/day
same,TD50,"rat, strain F344/DuCrj, females, in feed, site: forestomach, lesion: several types, types named in the paper, dosed 104 weeks, study length 104 weeks",298 mg/kg/day
same,TD50,"rat, strain F344/DuCrj, females, in feed, site: forestomach, lesion: squamous-cell carcinoma, dosed 104 weeks, study length 104 weeks",989 mg/kg/day
same,TD50,"rat, strain F344/DuCrj, males, in feed, site: forestomach, lesion: papilloma, dosed 104 weeks, study length 104 weeks",377 mg/kg/day
same,TD50,"rat, strain F344/DuCrj, males, in feed, site: forestomach, lesion: several types, types named in the paper, dosed 104 weeks, study length 104 weeks",272 mg/kg/day
same,TD50,"rat, strain F344/DuCrj, males, in feed, site: forestomach, lesion: squamous-cell carcinoma, dosed 104 weeks, study length 104 weeks",656 mg/kg/day
same,TD50,"rat, strain F344/DuCrj, males, in feed, site: forestomach, lesion: squamous-cell papilloma, dosed 51 weeks, study length 52 weeks",217 mg/kg/day
same,TD50,"rat, strain F344/DuCrj, males, in feed, site: forestomach, lesion: squamous-cell papilloma, dosed 60 weeks, study length 60 weeks",542 mg/kg/day
same,TD50,"rat, strain F344/DuCrj, males, in feed, site: kidney, lesion: tubular-cell adenoma, dosed 104 weeks, study length 104 weeks",3830 mg/kg/day
Cc1ccc2ccccc2c1,TD50,"mouse, strain B6C3F1, females, in feed, site: liver, lesion: hepatocellular adenoma, dosed 81 weeks, study length 81 weeks",6060 mg/kg/day
same,TD50,"mouse, strain B6C3F1, females, in feed, site: lung, lesion: several types, types named in the paper, dosed 81 weeks, study length 81 weeks",4010 mg/kg/day
same,TD50,"mouse, strain B6C3F1, males, in feed, site: lung, lesion: alveolar/bronchiolar adenoma, dosed 81 weeks, study length 81 weeks",735 mg/kg/day
same,TD50,"mouse, strain B6C3F1, males, in feed, site: lung, lesion: alveolar/bronchiolar carcinoma, dosed 81 weeks, study length 81 weeks",2780 mg/kg/day
same,TD50,"mouse, strain B6C3F1, males, in feed, site: lung, lesion: several types, types named in the paper, dosed 81 weeks, study length 81 weeks",205 mg/kg/day
CN(N=O)C(=O)c1ccccc1,TD50,"rat, strain MRC-Wistar, females, in drinking water, site: any site (literature study), lesion: several types, types named in the paper, dosed 52 weeks, study length 130 weeks",11.2 mg/kg/day
same,carcinogen call,"rat, strain MRC-Wistar, females, in drinking water, site: liver, lesion: one or several types, types not named, dosed 52 weeks, study length 130 weeks",negative (inactive)
same,TD50,"rat, strain MRC-Wistar, males, in drinking water, site: any site (literature study), lesion: several types, types named in the paper, dosed 52 weeks, study length 130 weeks",2.49 mg/kg/day
same,TD50,"rat, strain MRC-Wistar, males, in drinking water, site: forestomach, lesion: several types, types named in the paper, dosed 52 weeks, study length 130 weeks",3.23 mg/kg/day
same,TD50,"rat, strain MRC-Wistar, males, in drinking water, site: forestomach, lesion: squamous-cell carcinoma, dosed 52 weeks, study length 130 weeks",9.66 mg/kg/day
same,TD50,"rat, strain MRC-Wistar, males, in drinking water, site: forestomach, lesion: squamous-cell papilloma, dosed 52 weeks, study length 130 weeks",7.73 mg/kg/day
same,carcinogen call,"rat, strain MRC-Wistar, males, in drinking water, site: liver, lesion: one or several types, types not named, dosed 52 weeks, study length 130 weeks",negative (inactive)
NC(=S)NNC(N)=S,TD50,"mouse, strain B6C3F1, females, in feed, site: any site (literature study), lesion: several types, types named in the paper, dosed 94 weeks, study length 94 weeks",4350 mg/kg/day
same,TD50,"mouse, strain B6C3F1, females, in feed, site: liver, lesion: hepatocellular adenoma + hepatocellular carcinoma + neoplastic nodule, dosed 94 weeks, study length 94 weeks",5670 mg/kg/day
same,TD50,"mouse, strain B6C3F1, females, in feed, site: liver, lesion: hepatocellular carcinoma, dosed 94 weeks, study length 94 weeks",5670 mg/kg/day
same,TD50,"mouse, strain B6C3F1, females, in feed, site: lung, lesion: alveolar/bronchiolar adenoma + alveolar/bronchiolar carcinoma, dosed 94 weeks, study length 94 weeks",22900 mg/kg/day
same,TD50,"mouse, strain B6C3F1, males, in feed, site: any site (literature study), lesion: several types, types named in the paper, dosed 94 weeks, study length 94 weeks",20000 mg/kg/day (inactive)
same,TD50,"rat, strain Fischer 344, females, in feed, site: any site (literature study), lesion: several types, types named in the paper, dosed 109 weeks, study length 109 weeks",842 mg/kg/day (inactive)
same,TD50,"rat, strain Fischer 344, females, in feed, site: liver, lesion: hepatocellular adenoma + hepatocellular carcinoma + neoplastic nodule, dosed 109 weeks, study length 109 weeks",131000 mg/kg/day
same,TD50,"rat, strain Fischer 344, males, in feed, site: any site (literature study), lesion: several types, types named in the paper, dosed 109 weeks, study length 109 weeks",960 mg/kg/day
same,TD50,"rat, strain Fischer 344, males, in feed, site: liver, lesion: hepatocellular adenoma + hepatocellular carcinoma + neoplastic nodule, dosed 109 weeks, study length 109 weeks",5010 mg/kg/day
same,TD50,"rat, strain Fischer 344, males, in feed, site: pituitary gland, lesion: carcinoma, NOS, dosed 109 weeks, study length 109 weeks",2620 mg/kg/day (inactive)
C=COC(N)=O,TD50,"mouse, strain C57BL/10J, females, i.p., site: liver, lesion: hemangioma, dosed 35 weeks, study length 59 weeks",0.147 mg/kg/day
same,TD50,"mouse, strain C57BL/10J, females, i.p., site: liver, lesion: hemangiosarcoma, dosed 35 weeks, study length 59 weeks",0.138 mg/kg/day
same,TD50,"mouse, strain C57BL/10J, females, i.p., site: liver, lesion: hepatocellular adenoma, dosed 35 weeks, study length 59 weeks",4.99 mg/kg/day
same,TD50,"mouse, strain C57BL/10J, females, i.p., site: liver, lesion: hepatocellular carcinoma, dosed 35 weeks, study length 59 weeks",0.503 mg/kg/day
same,TD50,"mouse, strain C57BL/10J, males, i.p., site: liver, lesion: hemangioma, dosed 35 weeks, study length 59 weeks",0.112 mg/kg/day
same,TD50,"mouse, strain C57BL/10J, males, i.p., site: liver, lesion: hemangiosarcoma, dosed 35 weeks, study length 59 weeks",0.118 mg/kg/day
same,TD50,"mouse, strain C57BL/10J, males, i.p., site: liver, lesion: hepatocellular adenoma, dosed 35 weeks, study length 59 weeks",2.69 mg/kg/day
same,TD50,"mouse, strain C57BL/10J, males, i.p., site: liver, lesion: hepatocellular carcinoma, dosed 35 weeks, study length 59 weeks",0.629 mg/kg/day
ClCC1CO1 (configuration not stated),TD50,"mouse, strain Ha/ICR, females, i.p., site: lung, lesion: papillary tumor, dosed 64 weeks, study length 64 weeks",28.9 mg/kg/day
same,TD50,"rat, strain Sprague-Dawley, males, inhaled, site: nasal cavity, lesion: squamous-cell carcinoma, dosed 54 weeks, study length 136 weeks",421 mg/kg/day
same,TD50,"rat, strain Wistar, females, by gavage, site: forestomach, lesion: squamous-cell carcinoma, dosed 104 weeks, study length 104 weeks",2.55 mg/kg/day
same,carcinogen call,"rat, strain Wistar, females, by gavage, site: liver, lesion: neoplastic nodule, dosed 104 weeks, study length 104 weeks",negative (inactive)
same,TD50,"rat, strain Wistar, males, by gavage, site: any site (literature study), lesion: several types, types named in the paper, dosed 104 weeks, study length 104 weeks",4.83 mg/kg/day
same,TD50,"rat, strain Wistar, males, by gavage, site: forestomach, lesion: squamous-cell carcinoma, dosed 104 weeks, study length 104 weeks",3.53 mg/kg/day
same,carcinogen call,"rat, strain Wistar, males, by gavage, site: liver, lesion: hepatocellular carcinoma, dosed 104 weeks, study length 104 weeks",negative (inactive)
same,carcinogen call,"rat, strain Wistar, males, by gavage, site: liver, lesion: neoplastic nodule, dosed 104 weeks, study length 104 weeks",negative (inactive)
same,TD50,"rat, strain Wistar, males, by gavage, site: liver, lesion: one or several types, types not named, dosed 104 weeks, study length 104 weeks",218 mg/kg/day (inactive)
